Like-named read-outs stand apart in the source and are kept apart here.
Tested on: K-aerogenes strains producing both a plasmid-mediated and chromosomally mediated β-lactamase
Assay: MIC of compound (i) alone and in combination with compound (iii), K. aerogenes strains
Type: cell-based, Klebsiella aerogenes
Conditions: for MIC: Klebsiella aerogenes

CC1(C)S[C@@H]2[C@H](NC(=O)[C@H](NC(=O)Nc3cnc(Nc4ccc(S(N)(=O)=O)cc4)nc3O)c3ccc(O)cc3)C(=O)N2[C@H]1C(=O)O [compound (i)]
MIC (read-out: MIC µg/ml compound (i) alone): > 160 µg/mL | MIC (read-out: MIC µg/ml compound (i) alone, Geometric mean): > 160 µg/mL | MIC µg/ml compound (i) compound (iii) (µg/ml) 1, Geometric mean (geometric mean of 11 K. aerogenes strains, with compound (iii) 1 µg/ml, 95% confidence limits (0.49-50.9)): 5.0 µg/mL | MIC µg/ml compound (i) compound (iii) (µg/ml) 2, Geometric mean (geometric mean of 11 K. aerogenes strains, with compound (iii) 2 µg/ml, 95% confidence limits (0.3-14.4)): 2.1 µg/mL | MIC µg/ml compound (i) compound (iii) (µg/ml) 5, Geometric mean (geometric mean of 11 K. aerogenes strains, with compound (iii) 5 µg/ml, 95% confidence limits (0.14-4.5)): 0.81 µg/mL | MIC µg/ml compound (i) compound (iii) (µg/ml) 10, Geometric mean (geometric mean of 11 K. aerogenes strains, with compound (iii) 10 µg/ml, 95% confidence limits (0.04-0.9)): 0.19 µg/mL | MIC µg/ml compound (i) alone (strain 11793): >160 µg/mL | MIC µg/ml compound (i) compound (iii) (µg/ml) 1 (strain 11793, with compound (iii) 1 µg/ml): 10 µg/mL | MIC µg/ml compound (i) compound (iii) (µg/ml) 2 (strain 11793, with compound (iii) 2 µg/ml): 5 µg/mL | MIC µg/ml compound (i) compound (iii) (µg/ml) 5 (strain 11793, with compound (iii) 5 µg/ml): 2.5 µg/mL | MIC µg/ml compound (i) compound (iii) (µg/ml) 10 (strain 11793, with compound (iii) 10 µg/ml): 1.25 µg/mL | MIC µg/ml compound (i) alone (strain 11974): >160 µg/mL | MIC µg/ml compound (i) compound (iii) (µg/ml) 1 (strain 11974, with compound (iii) 1 µg/ml): 0.31 µg/mL | MIC µg/ml compound (i) compound (iii) (µg/ml) 2 (strain 11974, with compound (iii) 2 µg/ml): 0.16 µg/mL | MIC µg/ml compound (i) compound (iii) (µg/ml) 5 (strain 11974, with compound (iii) 5 µg/ml): 0.08 µg/mL | MIC µg/ml compound (i) compound (iii) (µg/ml) 10 (strain 11974, with compound (iii) 10 µg/ml): 0.04 µg/mL | MIC µg/ml compound (i) compound (iii) (µg/ml) 2 (strain BED4, with compound (iii) 2 µg/ml): 2.5 µg/mL | MIC µg/ml compound (i) compound (iii) (µg/ml) 5 (strain BED4, with compound (iii) 5 µg/ml): 1.25 µg/mL | MIC µg/ml compound (i) compound (iii) (µg/ml) 10 (strain BED4, with compound (iii) 10 µg/ml): 0.31 µg/mL | MIC µg/ml compound (i) alone (strain BED6): >160 µg/mL | MIC µg/ml compound (i) compound (iii) (µg/ml) 1 (strain BED6, with compound (iii) 1 µg/ml): 0.62 µg/mL | MIC µg/ml compound (i) compound (iii) (µg/ml) 2 (strain BED6, with compound (iii) 2 µg/ml): 0.31 µg/mL | MIC µg/ml compound (i) compound (iii) (µg/ml) 5 (strain BED6, with compound (iii) 5 µg/ml): 0.16 µg/mL | MIC µg/ml compound (i) compound (iii) (µg/ml) 10 (strain BED6, with compound (iii) 10 µg/ml): 0.08 µg/mL | MIC µg/ml compound (i) alone (strain BED9): >160 µg/mL | MIC µg/ml compound (i) compound (iii) (µg/ml) 1 (strain BED9, with compound (iii) 1 µg/ml): 0.31 µg/mL | MIC µg/ml compound (i) compound (iii) (µg/ml) 2 (strain BED9, with compound (iii) 2 µg/ml): 0.31 µg/mL | MIC µg/ml compound (i) compound (iii) (µg/ml) 5 (strain BED9, with compound (iii) 5 µg/ml): 0.16 µg/mL | MIC µg/ml compound (i) compound (iii) (µg/ml) 10 (strain BED9, with compound (iii) 10 µg/ml): 0.04 µg/mL | MIC µg/ml compound (i) alone (strain Ba95): >160 µg/mL | MIC µg/ml compound (i) compound (iii) (µg/ml) 1 (strain Ba95, with compound (iii) 1 µg/ml): 0.31 µg/mL | MIC µg/ml compound (i) compound (iii) (µg/ml) 2 (strain Ba95, with compound (iii) 2 µg/ml): 0.31 µg/mL | MIC µg/ml compound (i) compound (iii) (µg/ml) 5 (strain Ba95, with compound (iii) 5 µg/ml): 0.16 µg/mL | MIC µg/ml compound (i) compound (iii) (µg/ml) 10 (strain Ba95, with compound (iii) 10 µg/ml): 0.02 µg/mL | MIC µg/ml compound (i) alone (strain SA4): >160 µg/mL | MIC µg/ml compound (i) compound (iii) (µg/ml) 1 (strain SA4, with compound (iii) 1 µg/ml): 2.5 µg/mL | MIC µg/ml compound (i) compound (iii) (µg/ml) 2 (strain SA4, with compound (iii) 2 µg/ml): 1.25 µg/mL | MIC µg/ml compound (i) compound (iii) (µg/ml) 5 (strain SA4, with compound (iii) 5 µg/ml): 0.31 µg/mL | MIC µg/ml compound (i) compound (iii) (µg/ml) 10 (strain SA4, with compound (iii) 10 µg/ml): 0.08 µg/mL | MIC µg/ml compound (i) alone (strain VA1): >160 µg/mL | MIC µg/ml compound (i) compound (iii) (µg/ml) 1 (strain VA1, with compound (iii) 1 µg/ml): 10 µg/mL | MIC µg/ml compound (i) compound (iii) (µg/ml) 2 (strain VA1, with compound (iii) 2 µg/ml): 5 µg/mL | MIC µg/ml compound (i) compound (iii) (µg/ml) 5 (strain VA1, with compound (iii) 5 µg/ml): 2.5 µg/mL | MIC µg/ml compound (i) compound (iii) (µg/ml) 10 (strain VA1, with compound (iii) 10 µg/ml): 0.31 µg/mL | MIC µg/ml compound (i) alone (strain VA2): >160 µg/mL | MIC µg/ml compound (i) compound (iii) (µg/ml) 1 (strain VA2, with compound (iii) 1 µg/ml): 40 µg/mL | MIC µg/ml compound (i) compound (iii) (µg/ml) 2 (strain VA2, with compound (iii) 2 µg/ml): 10 µg/mL | MIC µg/ml compound (i) compound (iii) (µg/ml) 5 (strain VA2, with compound (iii) 5 µg/ml): 2.5 µg/mL | MIC µg/ml compound (i) compound (iii) (µg/ml) 10 (strain VA2, with compound (iii) 10 µg/ml): 0.62 µg/mL | MIC µg/ml compound (i) alone (strain VA3): >160 µg/mL | MIC µg/ml compound (i) compound (iii) (µg/ml) 1 (strain VA3, with compound (iii) 1 µg/ml): 40 µg/mL | MIC µg/ml compound (i) compound (iii) (µg/ml) 2 (strain VA3, with compound (iii) 2 µg/ml): 10 µg/mL | MIC µg/ml compound (i) compound (iii) (µg/ml) 5 (strain VA3, with compound (iii) 5 µg/ml): 2.5 µg/mL | MIC µg/ml compound (i) compound (iii) (µg/ml) 10 (strain VA3, with compound (iii) 10 µg/ml): 0.31 µg/mL | MIC µg/ml compound (i) alone (strain VA5): >160 µg/mL | MIC µg/ml compound (i) compound (iii) (µg/ml) 1 (strain VA5, with compound (iii) 1 µg/ml): >80 µg/mL | MIC µg/ml compound (i) compound (iii) (µg/ml) 2 (strain VA5, with compound (iii) 2 µg/ml): 80 µg/mL | MIC µg/ml compound (i) compound (iii) (µg/ml) 5 (strain VA5, with compound (iii) 5 µg/ml): 20 µg/mL | MIC µg/ml compound (i) compound (iii) (µg/ml) 10 (strain VA5, with compound (iii) 10 µg/ml): 2.5 µg/mL
